We go through seven molecules from publication PMC3728351, “Allosteric Inhibitors of the NS3 Protease from the Hepatitis C Virus” (PLoS ONE, 2013).

pEC50, pKd: −log10 of the molar value. Bounds are passed on as bounds.

T2 sequence (P26663 1027-1208 S1165A): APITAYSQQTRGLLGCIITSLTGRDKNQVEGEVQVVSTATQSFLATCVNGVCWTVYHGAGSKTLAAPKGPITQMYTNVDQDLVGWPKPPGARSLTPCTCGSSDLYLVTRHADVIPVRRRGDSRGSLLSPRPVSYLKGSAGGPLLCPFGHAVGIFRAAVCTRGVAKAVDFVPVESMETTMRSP

One data set relates to genotype 1b Con1 HCV subgenomic replicons (Huh 5-2). Description: microbe, parasite or virus in culture.
Settings: not given
On the procedure: The highly permissive cell clone Huh 7-Lunet, as well as Huh 7 cells containing subgenomic HCV replicons I389luc-ubi-neo/NS3-3′/5.1 (Huh 5-2), I377NS3-3′/wt (Huh 9-13) or I389/hygro-ubi-NS3-3/5.1 (a kind gift from Dr. V. Lohmann and Dr. R. Bartenschlager) have been described recently [25]-[28]. Cells were grown in Dulbecco’s modified Eagle’s medium (DMEM; Gibco, Belgium) supplemented with 10% heat-inactivated fetal bovine serum (PAN-Biotech GmbH, Germany), 1X non-essential amino acids (Gibco), 100 IU/mL penicillin (Gibco), 100 µg/mL streptomycin (Gibco), and 250 µg/mL geneticin (G418; Gibco).
Antiviral assays for assessing the efficacy of the selected compounds were performed as described in literature [23]–[28]. Briefly, Huh 5-2 cells were seeded at a density of 5⋅10^3 cells per well in a tissue culture-treated white 96-well view plate (Techno Plastic Products AG, Switzerland) in complete DMEM supplemented with 250 µg/mL G418. […] After 3 days of incubation at 37°C cell culture medium was removed and luciferase activity was determined using the Bright-Glo™ Luciferase Assay System (Promega Corporation, The Netherlands). The luciferase signal was measured using a Synergy HT Multimode Reader (BioTek Instruments Inc, USA).
With `Nc1c2c(nc3ccccc13)CCCC2` [Compound 5], the CC50/EC50 is listed as over 2.

The data set is the same for the next values; noted with them: Hepatitis C virus, GETYPE1B, Huh-5-2, 72 h, read-out: EC50, effective concentration 50%.
Consider `CC[C@@]1(O)C(=O)OCc2c1cc1n(c2=O)Cc2cc3ccccc3nc2-1` [Compound 3], for which the pEC50 was 7.52.

Regarding `COC(=O)[C@H]1[C@H]2C[C@@H]3c4[nH]c5cc(OC)ccc5c4CCN3C[C@H]2C[C@@H](OC(=O)/C=C/c2cc(OC)c(OC)c(OC)c2)[C@@H]1OC` [Compound 6], the pEC50 is 4.70.

As for `CCOc1ccc(Cc2nccc3cc(OCC)c(OCC)cc23)cc1OCC` [Compound 8], the pEC50 is 5.40.

Take `CC(=O)C1CCC2C3C=CC4=CC(=O)CCC4(C)C3CCC12C` (centres unmarked) [Compound 7]: the pEC50 was 5.70.

On to `COC(=O)Nc1nc2ccc(C(=O)c3cccs3)cc2[nH]1` [Compound 1], for which the pEC50 is 7.52.

For the molecule `Nc1c2c(nc3ccccc13)CCCC2` [Compound 5], the pEC50 is 4.22.

Still in this data set, the particulars now being: ratio of CC50 to EC50 in Huh 5-2 cells.
Regarding `COC(=O)[C@H]1[C@H]2C[C@@H]3c4[nH]c5cc(OC)ccc5c4CCN3C[C@H]2C[C@@H](OC(=O)/C=C/c2cc(OC)c(OC)c(OC)c2)[C@@H]1OC` [Compound 6], the CC50/EC50 is over 6.

In the case of `CCOc1ccc(Cc2nccc3cc(OCC)c(OCC)cc23)cc1OCC` [Compound 8], the CC50/EC50 came out at 15.

With `CC(=O)C1CCC2C3C=CC4=CC(=O)CCC4(C)C3CCC12C` (centres unmarked) [Compound 7], the CC50/EC50 is given as over 60.

With `COC(=O)Nc1nc2ccc(C(=O)c3cccs3)cc2[nH]1` [Compound 1], the CC50/EC50 is over 4000.

Tested on in a further data set: not listed separately
Description: in vitro. It counts as cell-based. To be noted: human. On the procedure:
Serial dilutions of the test compounds in complete DMEM (without G418) were added 24 hours after seeding. Cells were allowed to proliferate for 3 days at 37°C, after which the cell number was determined by CellTiter 96 AQueous One Solution Cell Proliferation Assay (Promega Corporation).
One may read the CC50 as the concentration that lowers cell viability or growth by half. A high value points to lower toxicity to the cells. `Nc1c2c(nc3ccccc13)CCCC2` [Compound 5] yielded a CC50 of over 120 µM.

Staying with this data set, now noted: human; Huh 5-2 cells, 3 days proliferation; relative error 15%.
Turning to `CC[C@@]1(O)C(=O)OCc2c1cc1n(c2=O)Cc2cc3ccccc3nc2-1` [Compound 3], the CC50 at 3 days turned out to be 8 µM.

Turning to `COC(=O)[C@H]1[C@H]2C[C@@H]3c4[nH]c5cc(OC)ccc5c4CCN3C[C@H]2C[C@@H](OC(=O)/C=C/c2cc(OC)c(OC)c(OC)c2)[C@@H]1OC` [Compound 6], the CC50 is over 120 µM.

Turning to `CCOc1ccc(Cc2nccc3cc(OCC)c(OCC)cc23)cc1OCC` [Compound 8], it took 60 µM to reach half-maximal cytotoxicity (CC50).

For the molecule `CC(=O)C1CCC2C3C=CC4=CC(=O)CCC4(C)C3CCC12C` (centres unmarked) [Compound 7], the CC50 is over 120 µM.

`COC(=O)Nc1nc2ccc(C(=O)c3cccs3)cc2[nH]1` [Compound 1] registered a CC50 of over 120 µM.

In a further data set the target is T1, NS3 protease wild-type (Zn^+2-free) (Hepatitis C virus genotype 1b, UniProt P26663).
T1 construct: The N-terminal domain from full-length NS3 protein corresponding to NS3 protease was expressed and purified; made in house
T1 sequence (P26663 1027-1208): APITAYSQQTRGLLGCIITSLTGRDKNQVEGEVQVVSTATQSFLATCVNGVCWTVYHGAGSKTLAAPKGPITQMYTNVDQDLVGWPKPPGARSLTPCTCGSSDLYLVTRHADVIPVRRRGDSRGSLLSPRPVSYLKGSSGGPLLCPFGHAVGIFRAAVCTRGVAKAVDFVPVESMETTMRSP
Description: biochemical. It counts as binding.
Settings: not given
On the procedure:
(§1) The N-terminal domain from full-length NS3 protein corresponding to NS3 protease was expressed and purified as described elsewhere, [18].
(§2) Ligand binding to NS3 protease was determined with a high-sensitivity isothermal titration VP-ITC microcalorimeter (MicroCal, USA). Protein samples and reference solutions were properly degassed and carefully loaded into the cells to avoid bubble formation during stirring. Experiments were performed with freshly prepared buffer-exchanged protein solutions, at 25°C in 100 mM sodium acetate, 2 mM EDTA, pH 5. NS3 protease 20 µM solution in the calorimetric cell was titrated with compound 300 µM solution. Control experiments were performed under the same experimental conditions, except for the presence of zinc (no addition of EDTA). The heat evolved after each ligand injection was obtained from the integral of the calorimetric signal. The heat due to the binding reaction was obtained as the difference between the reaction heat and the corresponding heat of dilution, the latter estimated as a constant heat throughout the experiment, and included as an adjustable parameter in the analysis. The association constant (Ka) and the enthalpy change (ΔH) were obtained through non-linear regression of experimental data to a model for a protein with a single ligand binding site. Data were analyzed using software developed in our laboratory implemented in Origin 7 (OriginLab, USA).
(§3) NS3 protease wild-type, pseudo-wild-type (containing the inactivating mutation S139A) and several variants containing drug-resistance associated mutations (R155K, R155Q, A156T, and D168A) were employed for determining the impact of these mutations on the interaction of the selected compounds with the protein (change in dissociation constant).
Consider `CC[C@@]1(O)C(=O)OCc2c1cc1n(c2=O)Cc2cc3ccccc3nc2-1` [Compound 3], for which the pKd is 5.60.

In turn, `COC(=O)[C@H]1[C@H]2C[C@@H]3c4[nH]c5cc(OC)ccc5c4CCN3C[C@H]2C[C@@H](OC(=O)/C=C/c2cc(OC)c(OC)c(OC)c2)[C@@H]1OC` [Compound 6] gave a pKd of 4.40.

The molecule `CCOc1ccc(Cc2nccc3cc(OCC)c(OCC)cc23)cc1OCC` [Compound 8] had a pKd of 4.51.

In the case of `CC(=O)C1CCC2C3C=CC4=CC(=O)CCC4(C)C3CCC12C` (centres unmarked) [Compound 7], the pKd is 4.80.

For `COC(=O)Nc1nc2ccc(C(=O)c3cccs3)cc2[nH]1` [Compound 1], the pKd is 5.72.

Regarding `Nc1c2c(nc3ccccc13)CCCC2` [Compound 5], the pKd is 5.77.

A further data set concerns the target T2, NS3 protease S139A (pseudo-wild-type) (Hepatitis C virus genotype 1b, UniProt P26663, S1165A).
T2 construct: The N-terminal domain from full-length NS3 protein corresponding to NS3 protease was expressed and purified; made in house
Description: ITC binding to Zn^+2-free NS3 protease, pseudo-wild-type S139A. The note with it: 25°C, 100 mM sodium acetate, 2 mM EDTA, pH 5; relative error 15%. On the procedure: as §1, §2, §3
`COC(=O)[C@H]1[C@H]2C[C@@H]3c4[nH]c5cc(OC)ccc5c4CCN3C[C@H]2C[C@@H](OC(=O)/C=C/c2cc(OC)c(OC)c(OC)c2)[C@@H]1OC` [Compound 6]: the pKd was 4.62.

With `CCOc1ccc(Cc2nccc3cc(OCC)c(OCC)cc23)cc1OCC` [Compound 8], the pKd is 4.47.

`CC(=O)C1CCC2C3C=CC4=CC(=O)CCC4(C)C3CCC12C` (centres unmarked) [Compound 7]: the pKd is 5.24.

`COC(=O)Nc1nc2ccc(C(=O)c3cccs3)cc2[nH]1` [Compound 1] gave a pKd of 5.19.

With `Nc1c2c(nc3ccccc13)CCCC2` [Compound 5], the pKd was 5.26.

The target of another data set is T3, NS3 protease S139A/R155K (Hepatitis C virus genotype 1b, UniProt P26663, R1181K/S1165A).
T3 construct: The N-terminal domain from full-length NS3 protein corresponding to NS3 protease was expressed and purified; made in house
T3 sequence (P26663 1027-1208 S1165A/R1181K): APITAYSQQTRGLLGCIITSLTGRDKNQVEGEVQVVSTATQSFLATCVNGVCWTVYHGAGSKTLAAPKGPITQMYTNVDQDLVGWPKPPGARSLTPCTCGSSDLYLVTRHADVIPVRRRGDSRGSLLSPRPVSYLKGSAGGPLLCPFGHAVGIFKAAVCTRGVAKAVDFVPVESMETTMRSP
Description: ITC binding to Zn^+2-free NS3 protease, S139A/R155K. To be noted: 25°C, 100 mM sodium acetate, 2 mM EDTA, pH 5; relative error 15%. On the procedure:
as §1, §2, §3
Take `COC(=O)[C@H]1[C@H]2C[C@@H]3c4[nH]c5cc(OC)ccc5c4CCN3C[C@H]2C[C@@H](OC(=O)/C=C/c2cc(OC)c(OC)c(OC)c2)[C@@H]1OC` [Compound 6]: the pKd was 4.21.

On to `CCOc1ccc(Cc2nccc3cc(OCC)c(OCC)cc23)cc1OCC` [Compound 8], for which the pKd is 5.04.

Molecule `CC(=O)C1CCC2C3C=CC4=CC(=O)CCC4(C)C3CCC12C` (centres unmarked) [Compound 7] gave a pKd of 4.80.

Turning to `COC(=O)Nc1nc2ccc(C(=O)c3cccs3)cc2[nH]1` [Compound 1], the pKd is 5.28.

Consider `Nc1c2c(nc3ccccc13)CCCC2` [Compound 5], for which the pKd is 5.23.

The target of the next data set is T4, NS3 protease S139A/R155Q (Hepatitis C virus genotype 1b, UniProt P26663, R1181Q/S1165A).
T4 construct: The N-terminal domain from full-length NS3 protein corresponding to NS3 protease was expressed and purified; made in house
T4 sequence (P26663 1027-1208 S1165A/R1181Q): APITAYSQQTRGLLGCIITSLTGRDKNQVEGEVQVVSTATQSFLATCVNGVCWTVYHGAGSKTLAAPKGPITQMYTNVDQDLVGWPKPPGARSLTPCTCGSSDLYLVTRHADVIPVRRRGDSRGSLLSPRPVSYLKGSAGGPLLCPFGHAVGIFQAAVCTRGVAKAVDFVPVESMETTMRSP
Description: ITC binding to Zn^+2-free NS3 protease, S139A/R155Q. To be noted: 25°C, 100 mM sodium acetate, 2 mM EDTA, pH 5; relative error 15%. The protocol: as §1, §2, §3
With `COC(=O)[C@H]1[C@H]2C[C@@H]3c4[nH]c5cc(OC)ccc5c4CCN3C[C@H]2C[C@@H](OC(=O)/C=C/c2cc(OC)c(OC)c(OC)c2)[C@@H]1OC` [Compound 6], the pKd was 4.64.

Regarding `CCOc1ccc(Cc2nccc3cc(OCC)c(OCC)cc23)cc1OCC` [Compound 8], the pKd is 4.38.

`CC(=O)C1CCC2C3C=CC4=CC(=O)CCC4(C)C3CCC12C` (centres unmarked) [Compound 7] showed a pKd of 5.38.

As to `Nc1c2c(nc3ccccc13)CCCC2` [Compound 5], the pKd was 4.49.

For a further data set, the target named is T5, NS3 protease S139A/A156T (Hepatitis C virus genotype 1b, UniProt P26663, A1182T/S1165A).
T5 construct: The N-terminal domain from full-length NS3 protein corresponding to NS3 protease was expressed and purified; made in house
T5 sequence (P26663 1027-1208 S1165A/A1182T): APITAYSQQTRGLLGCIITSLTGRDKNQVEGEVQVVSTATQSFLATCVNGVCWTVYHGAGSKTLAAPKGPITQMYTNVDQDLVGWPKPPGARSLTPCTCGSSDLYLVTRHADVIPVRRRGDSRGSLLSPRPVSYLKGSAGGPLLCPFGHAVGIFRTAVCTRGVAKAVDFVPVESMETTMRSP
Description: ITC binding to Zn^+2-free NS3 protease, S139A/A156T. The note with it: 25°C, 100 mM sodium acetate, 2 mM EDTA, pH 5; relative error 15%. The protocol: as §1, §2, §3
Take `COC(=O)[C@H]1[C@H]2C[C@@H]3c4[nH]c5cc(OC)ccc5c4CCN3C[C@H]2C[C@@H](OC(=O)/C=C/c2cc(OC)c(OC)c(OC)c2)[C@@H]1OC` [Compound 6]: the pKd was 4.35.

`CCOc1ccc(Cc2nccc3cc(OCC)c(OCC)cc23)cc1OCC` [Compound 8] had a pKd of 4.66.

In turn, `CC(=O)C1CCC2C3C=CC4=CC(=O)CCC4(C)C3CCC12C` (centres unmarked) [Compound 7] had a pKd of 5.24.

In turn, `Nc1c2c(nc3ccccc13)CCCC2` [Compound 5] had a pKd of 4.57.

Another data set deals with T6, NS3 protease S139A/D168A (Hepatitis C virus genotype 1b, UniProt P26663, D1194A/S1165A).
T6 construct: The N-terminal domain from full-length NS3 protein corresponding to NS3 protease was expressed and purified; made in house
T6 sequence (P26663 1027-1208 S1165A/D1194A): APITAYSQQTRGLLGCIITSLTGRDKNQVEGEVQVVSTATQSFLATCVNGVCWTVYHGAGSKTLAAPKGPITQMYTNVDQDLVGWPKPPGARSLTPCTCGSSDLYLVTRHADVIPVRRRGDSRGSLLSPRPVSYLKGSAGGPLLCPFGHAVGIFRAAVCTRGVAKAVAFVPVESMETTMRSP
Description: ITC binding to Zn^+2-free NS3 protease, S139A/D168A. The note with it: 25°C, 100 mM sodium acetate, 2 mM EDTA, pH 5; relative error 15%. The protocol: as §1, §2, §3
As to `COC(=O)[C@H]1[C@H]2C[C@@H]3c4[nH]c5cc(OC)ccc5c4CCN3C[C@H]2C[C@@H](OC(=O)/C=C/c2cc(OC)c(OC)c(OC)c2)[C@@H]1OC` [Compound 6], the pKd is 4.44.

The molecule `CCOc1ccc(Cc2nccc3cc(OCC)c(OCC)cc23)cc1OCC` [Compound 8] showed a pKd of 4.80.

Take `CC(=O)C1CCC2C3C=CC4=CC(=O)CCC4(C)C3CCC12C` (centres unmarked) [Compound 7]: the pKd was 5.19.

On to `COC(=O)Nc1nc2ccc(C(=O)c3cccs3)cc2[nH]1` [Compound 1], for which the pKd is 5.59.

As for `Nc1c2c(nc3ccccc13)CCCC2` [Compound 5], the pKd is 5.07.

The subject of a further data set is NS3 protease.
Test: not given
The note with it: assuming pseudo-first order association, from kobs of ref 23.
For orientation: kon means the rate constant with which the complex forms. As for zinc, the kon is under 1400 M⁻¹ s⁻¹.

For the next data set, the target named is NS3 protease.
Test: not given
The note with it: read-out: apparent dissociation constant for the NS3-zinc interaction; cited from earlier work.
Consider zinc, for which the pKd is about 6.00.

The target in another data set is NS3 protease.
Test: not given
The note with it: read-out: dissociation constant for the NS3-zinc interaction; ITC, pH 5; cited from earlier work.
Regarding zinc, the pKd is 6.30.

Another data set concerns NS3 protease.
Test: not given
The note with it: pH 7.5; cited from earlier work.
On to zinc, for which the “apparent association rate constant, kobs” value is listed as “around 0.014 s^−1”.
